In ChEMBL document CHEMBL1201862, “PubChem BioAssay data set” (2004):
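Protocol summary: plate cells (96-well), add compound at 5 concentrations, incubate 48 h, interpolate endpoints linearly. The concentration for 50% growth inhibition is given as GI50.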 The source made the active and inactive calls. Rule as the data show it: active = GI50 up to about 1.1 µM and inactive = higher.

Key:
Assay in all cases: growth of human tumour cells (NCI), 48 h
[1] = tested on: HT-29
[2] = tested on: HOP-62
[3] = tested on: SK-OV-3
[4] = tested on: KM12
[5] = tested on: EKVX
[6] = tested on: HL-60
[7] = tested on: IGROV-1
[8] = tested on: Malme-3M
[9] = tested on: HCT-15
[10] = tested on: UACC-257
[11] = tested on: NCI-H226
[12] = tested on: A549
[13] = tested on: NCI-H522
[14] = tested on: SK-MEL-28
[15] = tested on: CAKI-1

Row | Compound | GI50 [1] | GI50 [2] | GI50 [3] | GI50 [4] | GI50 [5] | GI50 [6] | GI50 [7] | GI50 [8] | GI50 [9] | GI50 [10] | GI50 [11] | GI50 [12] | GI50 [13] | GI50 [14] | GI50 [15]
1 | CCn1c2ccccc2c2ccc3c(c21)C(=O)C=CC3=O | 21 µM (inactive) | 7.52 µM (inactive) | 18.6 µM (inactive) | 14.4 µM (inactive) | 12.1 µM (inactive) | 2.43 µM (inactive) | 1.39 µM (inactive) | 9.86 µM (inactive) | 10.4 µM | 14.6 µM (inactive) | 18 µM (inactive) | 43.6 µM (inactive) | 2.58 µM (inactive) | 18.3 µM (inactive) | –
2 | CC1(c2ccccc2)CC(c2cccc([N+](=O)[O-])c2)=NO1 (stereo not given) | 73.1 µM (inactive) | > 100 µM (inactive) | > 100 µM (inactive) | > 100 µM (inactive) | – | – | > 100 µM (inactive) | > 100 µM (inactive) | > 100 µM | > 100 µM (inactive) | > 100 µM (inactive) | > 100 µM (inactive) | 30.1 µM (inactive) | > 100 µM (inactive) | –
3 | CCN(CC)c1c(C(=O)/C=C/c2ccc(F)cc2)c(-c2ccccc2)nn(C)c1=O | 6.5 µM (inactive) | 11.6 µM (inactive) | 11.9 µM (inactive) | 4.85 µM (inactive) | 13.8 µM (inactive) | 2.9 µM (inactive) | 5.98 µM (inactive) | 13.3 µM (inactive) | 10.4 µM | 6.89 µM (inactive) | 14.7 µM (inactive) | 8.69 µM (inactive) | 3.57 µM (inactive) | 14.1 µM (inactive) | 11.6 µM (inactive)
4 | NC1=NN(c2ccccc2)C(=O)C1C(=O)C(=O)Nc1ccc(Cl)c(Cl)c1 (stereo not given) | > 100 µM (inactive) | > 100 µM (inactive) | > 100 µM (inactive) | > 100 µM (inactive) | > 100 µM (inactive) | 86.1 µM (inactive) | > 100 µM (inactive) | > 100 µM (inactive) | 68.7 µM | > 100 µM (inactive) | > 100 µM (inactive) | > 100 µM (inactive) | 84.9 µM (inactive) | > 100 µM (inactive) | 55.3 µM (inactive)
5 | COc1ccc2ccnc(Cc3ccc(OCc4ccccc4)c(OC)c3)c2c1 | 27.8 µM (inactive) | 15.8 µM (inactive) | – | 18 µM (inactive) | 17.9 µM (inactive) | – | – | 16.9 µM (inactive) | 15.2 µM | 20.8 µM (inactive) | – | 24.4 µM (inactive) | 22.8 µM (inactive) | 16.7 µM (inactive) | 29.2 µM (inactive)
6 | COc1cc(C(CC(OC)OC)=C(C#N)C#N)cc(OC)c1OC | 5.6 µM (inactive) | – | 32.4 µM (inactive) | 18.7 µM (inactive) | 34.9 µM (inactive) | 19.5 µM (inactive) | 39.4 µM (inactive) | 26.1 µM (inactive) | 16.9 µM | 18 µM (inactive) | 0.485 µM (active) | 28.8 µM (inactive) | 13.9 µM (inactive) | 36.3 µM (inactive) | 34.3 µM (inactive)
7 | C/C(CC(=O)Nc1cc(Cl)c(Cl)cc1Cl)=N\NS(=O)(=O)c1ccc(C)cc1 | 51.3 µM (inactive) | 31.8 µM (inactive) | 53.7 µM (inactive) | 40.3 µM (inactive) | 35.3 µM (inactive) | 24.1 µM (inactive) | 37.4 µM (inactive) | 31.2 µM (inactive) | – | 26 µM (inactive) | 17.9 µM (inactive) | 45.7 µM (inactive) | 17.6 µM (inactive) | 34.2 µM (inactive) | –
8 | CCN(CC)C(=O)Cc1c(C(=O)N(CC)CC)c(=O)nc2sccn12 | > 100 µM (inactive) | > 100 µM (inactive) | > 100 µM (inactive) | > 100 µM (inactive) | > 100 µM (inactive) | > 100 µM (inactive) | > 100 µM (inactive) | > 100 µM (inactive) | > 100 µM | > 100 µM (inactive) | > 100 µM (inactive) | > 100 µM (inactive) | > 100 µM (inactive) | > 100 µM (inactive) | –
9 | c1ccc2c(NCCCCCCNc3cccc4ccccc34)cccc2c1 | > 100 µM (inactive) | > 100 µM (inactive) | > 100 µM (inactive) | > 100 µM (inactive) | > 100 µM (inactive) | 51.5 µM (inactive) | > 100 µM (inactive) | > 100 µM (inactive) | > 100 µM | > 100 µM (inactive) | > 100 µM (inactive) | 42 µM (inactive) | > 100 µM (inactive) | > 100 µM (inactive) | > 100 µM (inactive)
10 | COc1ccc(C(=O)O[C@H]2[C@@H]3C=CO[C@@H](OC4OC(CO)C(O)C(O)C4O)[C@@H]3[C@@]3(CO)O[C@@H]23)cc1O (stereo not given in full) | > 100 µM (inactive) | > 100 µM (inactive) | > 100 µM (inactive) | > 100 µM (inactive) | > 100 µM (inactive) | > 100 µM (inactive) | > 100 µM (inactive) | > 100 µM (inactive) | – | > 100 µM (inactive) | – | > 100 µM (inactive) | > 100 µM (inactive) | > 100 µM (inactive) | > 100 µM (inactive)
11 | Cc1c2ccccc2c(=O)n2c(-c3ccccn3)cccc12 | > 100 µM (inactive) | > 100 µM (inactive) | > 100 µM (inactive) | > 100 µM (inactive) | > 100 µM (inactive) | > 100 µM (inactive) | > 100 µM (inactive) | > 100 µM (inactive) | > 100 µM | 94.8 µM (inactive) | > 100 µM (inactive) | > 100 µM (inactive) | > 100 µM (inactive) | > 100 µM (inactive) | > 100 µM (inactive)
12 | Cn1c2c(c3ccccc31)CCN(CCN1CCN(c3cccc(Cl)c3)CC1)C2=O | 18.2 µM (inactive) | > 100 µM (inactive) | > 100 µM (inactive) | – | > 100 µM (inactive) | 15.9 µM (inactive) | > 100 µM (inactive) | – | 25.8 µM | – | – | > 100 µM (inactive) | 47.5 µM (inactive) | > 100 µM (inactive) | –
13 | O=C(Nc1ccccc1-c1nc2ccccc2[nH]c1=O)c1ccccc1 | 37.3 µM (inactive) | 19.5 µM (inactive) | 20.3 µM (inactive) | 28.7 µM (inactive) | 25.3 µM (inactive) | – | 26.4 µM (inactive) | 32.1 µM (inactive) | 35.2 µM | 44 µM (inactive) | 25.2 µM (inactive) | 25.9 µM (inactive) | 14.8 µM (inactive) | 43.5 µM (inactive) | 29.9 µM (inactive)
14 | C=CCC1C(=O)CC2(C)C(CC=C)C(=O)CC12C (stereo not given) | > 100 µM (inactive) | > 100 µM (inactive) | > 100 µM (inactive) | > 100 µM (inactive) | > 100 µM (inactive) | > 100 µM (inactive) | > 100 µM (inactive) | > 100 µM (inactive) | > 100 µM | > 100 µM (inactive) | > 100 µM (inactive) | > 100 µM (inactive) | > 100 µM (inactive) | > 100 µM (inactive) | > 100 µM (inactive)
15 | COC(=O)/C(=N\O)C(C(=O)C=C(C)C)C(=O)C(=O)Nc1ccccc1C (stereo not given) | > 100 µM (inactive) | > 100 µM (inactive) | > 100 µM (inactive) | > 100 µM (inactive) | > 100 µM (inactive) | > 100 µM (inactive) | > 100 µM (inactive) | > 100 µM (inactive) | > 100 µM | > 100 µM (inactive) | > 100 µM (inactive) | > 100 µM (inactive) | > 100 µM (inactive) | > 100 µM (inactive) | > 100 µM (inactive)
16 | CS(=O)(=O)OCCN1CCN(C(=O)c2ccc(Cl)c3c(Nc4ccc(S(=O)(=O)N=C(N)N)cc4)c4ccccc4nc23)CC1 | > 100 µM (inactive) | > 100 µM (inactive) | > 100 µM (inactive) | > 100 µM (inactive) | – | > 100 µM (inactive) | > 100 µM (inactive) | > 100 µM (inactive) | > 100 µM | > 100 µM (inactive) | > 100 µM (inactive) | > 100 µM (inactive) | – | > 100 µM (inactive) | > 100 µM (inactive)
17 | C=Cc1ccc(C)[n+](C[Si](C)(C)O[Si](C)(C)C)c1 | > 100 µM (inactive) | > 100 µM (inactive) | > 100 µM (inactive) | > 100 µM (inactive) | > 100 µM (inactive) | – | > 100 µM (inactive) | > 100 µM (inactive) | > 100 µM | > 100 µM (inactive) | > 100 µM (inactive) | > 100 µM (inactive) | > 100 µM (inactive) | > 100 µM (inactive) | > 100 µM (inactive)
18 | CSc1ccc2c(cc1=O)[C@@H](NC(=O)c1ccc(Cl)cc1)CCc1cc(O)c(O)c(O)c1-2 | > 100 µM (inactive) | 57.4 µM (inactive) | > 100 µM (inactive) | 40.4 µM (inactive) | 69.2 µM (inactive) | 27.5 µM (inactive) | 22.1 µM (inactive) | > 100 µM (inactive) | 21.6 µM | > 100 µM (inactive) | > 100 µM (inactive) | 53 µM (inactive) | 15.4 µM (inactive) | 80 µM (inactive) | 45.9 µM (inactive)
19 | Cc1c(O)c(=O)ccn1C1OC(CO)C(O)C1O (stereo not given) | > 100 µM (inactive) | > 100 µM (inactive) | > 100 µM (inactive) | > 100 µM (inactive) | > 100 µM (inactive) | 17.4 µM (inactive) | – | > 100 µM (inactive) | 68.1 µM | > 100 µM (inactive) | > 100 µM (inactive) | > 100 µM (inactive) | > 100 µM (inactive) | > 100 µM (inactive) | > 100 µM (inactive)
20 | Cc1cc2c(ccc3c(C)cc(=O)oc32)o1 | > 100 µM (inactive) | > 100 µM (inactive) | > 100 µM (inactive) | > 100 µM (inactive) | > 100 µM (inactive) | – | > 100 µM (inactive) | > 100 µM (inactive) | > 100 µM | > 100 µM (inactive) | > 100 µM (inactive) | > 100 µM (inactive) | > 83.6 µM (inactive) | > 100 µM (inactive) | > 100 µM (inactive)
